The results in this text go back to US20090012018A1, “Inhibition of pancretic cancer cell growth” (priority 2004, published 2009).

One test relates to CFPAC-1. Put plainly: Sensitivity of pancreatic adenocarcinoma cells to drug treatment (cell proliferation, apoptosis). The class given is cell-based, human. Conditions: CFPAC-1 (CFPAC); vs untreated controls; FIG. 3B, 5. Here is the method: The culture media was changed every 48 hrs.
(§1) Cells were pulsed with 10 μM BrdU for two hours and then harvested and fixed. BrdU incorporation was detected with a fluorescein isothiocyanate conjugated anti-BrdU antibody (BD Biosciences) and total DNA was stained with 7-AAD (BD Biosciences). FACS analysis was performed according to the BD Biosciences BrdU flow kit manual. Cells in S-phase were defined as the BrdU-positive cell population with a DNA content between 2N and 4N. According to the manual, apoptotic cells were defined as a subpopulation of G0/G1 cells with DNA content lower than the diploid amount (<2N).

For test [1], the system named is Wnt signaling (Top-Flash reporter). Put plainly: Fop/Top-Flash luciferase reporter assay. The format is cell-based, human. Conditions: CFPAC-1, BxPC3, L3.6sl, Panc4.21, 24 hrs after transfection, sulindac 250 μM, sulindac sulfone 150 μM, cyclopamine 10 μM, or co-transfection. Here is the method: The cell lines were plated the day prior to transfection at a density of 8×10^4 cells/well in a 24-well plate. The luciferase reporter constructs used included: Top-Flash and Fop-Flash containing multimerized Tcf-Lef binding sites or nonfunctional sites, respectively; TK-Luc (Promega); and GliBS containing 8×Gli binding sites upstream of the TK minimal promoter (Sasaki et al., Development, 124:1313-1322, 1997). In different experiments, the reporter constructs were co-transfected with an expression vector containing a dominant-negative form of Lef1 or the endogenous Wnt inhibitor Icat. The dominant negative Lef1 (gift from S. Pleasure) was generated by cloning the 63 amino acid N-terminal deleted form of Lef1 into the pEF5 plasmid. This construct also contains an IRES-EGFP cassette. The cDNA coding for the Icat protein was cloned into pIRES2-EGFP (BD Biosciences Clontech). Transfections were performed using the Effectene transfection reagent […] according to the user's manual. A Renilla luciferase plasmid (Promega) was included to control for transfection efficiency. Transfected cells were cultured in medium containing serum. […] Cells were harvested 24 hrs after transfection, and luciferase activity was assayed using the Dual Luciferase kit (Promega), according to the user's manual.
For each Fop-luciferase or Top-luciferase experiment, a renilla luciferase construct was included. For each experimental condition (drug treatment, co-transfection or siRNA), triplicate Top- and Fop-luciferase samples were analyzed. To equilibrate the total vector-DNA (or siRNA) amount in all samples, equivalent amounts of an empty expression vector or unrelated siRNAs were transfected into control samples. The following equations were used to obtain the normalized luciferase values and the relative (fold) activation. The firefly luciferase (Fop and Top) values were divided by the renilla luciferase values to obtain the normalized luciferase values. The normalized Top values for each condition were divided by the Fop values of the same condition (e.g., untreated Top/untreated Fop; drug-treated Top/drug-treated Fop). […] To minimize the number of bars in each figure, only representative average Fop values are included in the graphs.

In a further test the test system is Tcf1. Put plainly: Immunofluorescence of Tcf expression in pancreatic cancer cells. The class given is cell-based, human. Conditions: pancreatic cancer cells (Panc4.21); cyclopamine for 24 hrs (FIG. 4C) or sulindac-treated.
A further test relates to L3.6sl tumors. Briefly: Subcutaneous tumor treatment in nude mice. The class given is in vivo, CD-1 nude mice. Here is the method:
A total of 0.1 ml Hanks' balanced salt solution and matrigel (1:1) containing 2×10^6 cells was injected subcutaneously into CD-1 nude mice (Charles River Laboratories). Tumors were grown for 4 days to a minimum volume of 125 mm^3. Treatment was initiated simultaneously for all subjects. Mice were injected with vector alone (peanut oil: PBS 7:3 v/v) or with a sulindac solution (3 mg/mouse/day) daily for 5 days. Sulindac sulfone was administered orally (1.5 mg/mouse/day). At the end of the treatment period, tumors were excised from mice, weighed and photographed.
Individual or combined treatment was initiated after tumors were palpable.

The next test has as its system BxPC3. Put plainly: Sensitivity of pancreatic adenocarcinoma cells to drug treatment (cell proliferation, apoptosis). The class given is cell-based, human. Here is the method: (§2) Human pancreatic adenocarcinoma cell lines HPAC, SW1990, Mpanc-96, SU86.86, PL45, Panc10.05 Panc2.03 and Panc8.13 were obtained from ATCC; cell lines MiaPaCa2, Panc1, CFPAC-1, HPAFII, Capan-2, AsPC1, Hs766T and BxPC3 were a gift from Schering Plough; cell lines COLO357, L3.3, L3.6 pl and L3.6 sl were a gift from I. Fidler; cell lines Panc3.27, Panc4.21, Panc5.04, Panc2.13, Panc1.28 and Panc6.03 were a gift from E. Jaffee. BxPC3 and the Panc cell lines were grown in RPMI medium (Gibco) supplemented with 10% FBS, L-glutamine and penicillin/streptomycin; medium for the Panc cells was also supplemented with insulin-transferrin-selenium (Gibco). The CFPAC-1, Panc1, AsPC1, Hs766T, L3.6sl and L3.6pl were grown in DMEM without phenol red (CellGro), supplemented with 10% FBS. Derivation and culture of PDC cells was as described (Schreiber et al., Gastroenterology, 127:250-260, 2004).
(§3) The small chemical inhibitors were used at the following final concentrations: up to 250 μM for sulindac (Sigma), up to 300 μM for sulindac sulfone (Calbiochem or ICN), NS-398 up to 25 μM (Calbiochem), sodium salicylate up to 100 μM (Calbiochem). […] To test for drug sensitivity, the cells were plated in control medium or in medium containing the drug of interest for 2 to 5 days. The culture media was changed every 48 hrs. The images showing cell morphology were taken with a Nikon inverted microscope.
as §1

The subject of a further test is L3.6sl. Described as above. The format is cell-based, human. Here is the method:
as §2, §3, §1

The subject of another test is Panc4.21. Described as above. The class given is cell-based, human. Here is the method: as §2, §3, §1
The mark [2] stands for this setting: reduction in cell proliferation.

“Also recorded” adds a separate entry of the source.

In the case of `CC1=C(CC(=O)O)c2cc(F)ccc2/C1=C\c1ccc([S+](C)[O-])cc1` (stereo not drawn) [sulindac], in the test with CFPAC-1, the “cell growth (proliferation, apoptosis)” value was “not affected; also recorded: only marginally affected”. The figures for the “Top-Flash reporter activity (Wnt signaling)” value in test [1] and in test [1] (listed as Sulindac) were “inhibit Wnt activity; also recorded: inhibited; also recorded: showed an inhibitory effect” and “suppressed Top-Flash reporter activation in all cell lines tested”, respectively. Also, the Tcf1 expression result in the test on Tcf1 was “reduced”. Further, the “reduction in tumor volume compared to untreated samples” value in the test with L3.6sl tumors (sulindac 3 mg/mouse/day injected daily for 5 days) was 80%. Further, the tumor growth result in the test on L3.6sl tumors (treated for five days vs untreated controls, sulindac 3 mg/mouse/day injected, sulindac sulfone 1.5 mg/mouse/day orally) is “strongly reduced”. Besides, the induced apoptosis result in the test with BxPC3 (concentration dependent), in the test with L3.6sl (concentration dependent) and in the test with Panc4.21 (concentration dependent) was “two to four-fold” each time. Further, the “Sulindac Sensitivity” value with BxPC3 (setting [2]), with L3.6sl (setting [2]) and in the test on Panc4.21 (setting [2]) was “Positive” throughout. The cell growth result with BxPC3 (vs untreated controls, FIG. 3B) is “strongly inhibits growth”; in the test with L3.6sl (vs untreated controls, FIG. 3B), “strongly inhibits growth”; in the test on Panc4.21 (vs untreated controls, FIG. 3B) it was “strongly inhibits growth”.
